Peptide text beside a SMILES is read from it.
Columns and labels:
[1] = system: bacterial thrombin-like enzyme (media from an actively growing S. aureus culture); assay: Susceptibility to spent S. aureus culture media (HPLC); conditions: for degradation of silk protein in S. aureus bacterial media: 48 h, different concentrations of spent bacterial media vs control without media, 37 °C, HPLC area under the curve
Description: (§1) The thrombin-sensitive peptide, […] (TSP), was custom synthesized by standard Fmoc synthesis (WatsonBio, Houston, TX, USA). The susceptibility of the peptide to the bacterial thrombin-like enzyme was assessed by exposing the peptide to media from an actively growing S. aureus culture. Enzymatic activity of the media was initially determined by titrating culture exudate into a fluorogenic thrombin substrate, Boc-Val-Pro-Arg-MCA (Sigma Aldrich, St. Louis, MO, USA). TSP was then exposed to the media with varying enzymatic activity and incubated at 37 °C with shaking. The sample was analyzed with HPLC (mobile phase 0.1% TFA/water (A) 0.1% TFA/Acetonitrile (B), under a gradient flow of 5–90% at a flow rate of 1.0 mL/min) every 12 h through 48 h. Protein was detected at a wavelength of 215 nm. A similar experiment was conducted with the recombinant spider silk to check the susceptibility of the silk protein to the bacterial enzyme.

[2] = water control, HPLC
Description: as §1
(§2) The susceptibility of the TSP to the bacterial thrombin-like enzyme was assessed by exposing the peptide to media from an actively growing S. aureus culture. Enzymatic activity of the bacterial culture was determined by a fluorogenic thrombin substrate, Boc-Val-Pro-Arg-MCA. TSP was initially titrated into media with varying enzymatic activity to determine the amount of enzyme required to cleave the peptide.

human thrombin = human thrombin (Homo sapiens, UniProt P00734)
Description: as §1, §2

[3] = Exposure to human serum (HPLC); format: in vitro ADME
From the text: Frequent and inappropriate usage of antibiotics has changed the natural evolution of bacteria by reducing susceptibility and increasing resistance towards antibacterial agents. New resistance mechanisms evolved in the response to host defenses and pharmaceutical interventions are threatening our ability to treat common infections, resulting in increased mortality. In the face of this rising epidemic, antibiotic drug discovery, which has long been overlooked by big pharma, is reaching a critical low. Thus, the development of an infection-responsive drug delivery system, which may mitigate multidrug resistance and preserve the lifetime of our current antibiotic arsenal, has garnered the attention of both popular science and funding agencies. The present work describes the development of a thrombin-sensitive linker embedded into a recombinant spider silk copolymer to create a nanosphere drug delivery vehicle. […] A thrombin sensitive peptide (TSP) was synthesized, and the thrombin cleavage sensitivity was determined by HPLC. […] Subsequently, the peptide was coupled with a silk copolymer via EDC-NHS chemistry and formulated into nanospheres encapsulating antibiotic vancomycin. These nanospheres were evaluated for in vitro infection-responsive drug release and antimicrobial activity. Finally, the drug responsive nanospheres were assessed for efficacy in an in vivo septic arthritis model. […]

[4] = system: S. aureus infected knee joint; assay: In vivo septic arthritis model, H&E histopathology of knee joint; parameters: species or system Sprague Dawley rats; conditions: H&E staining, 48 h after local treatment
Description: After establishing the septic arthritis disease model, treatment with either free drug, drug-loaded conjugate particles, or drug-loaded silk particles was given on day two after bacterial inoculation. Rats were divided into three treatment groups (Table 1). The first group received drug-loaded (14 mg/kg) conjugate nanoparticles in the infected knee locally delivered into the synovial joint space while the uninfected knee was injected with unloaded conjugate nanoparticles. The second group received drug-loaded plain silk SX2 particles into the infected knee while the uninfected knee was injected with unloaded SX2 particles. The third group received a free drug into the infected knee joint and sterile PBS into the uninfected knee. The treatment was continued for 48 h after which rats were euthanized and limbs were collected for histopathological analysis. Before euthanasia, synovial fluid was collected from the joint space of the infected knee and the control knee of all the groups and cultured on LB agar plates overnight. After incubation overnight, the number of colonies were counted.
Histopathology was performed on the infected and uninfected bones by hematoxylin and eosin (H and E) stain. Initially the bones were harvested from the rat after euthanasia and fixed in 10% neutral buffered formalin for 72 h. […]

S. aureus = conditions: standard ZOI values of the free drug for SA; ref not given; cited from earlier work
Description: To explore the potential efficacy of this delivery system for the treatment of S. aureus septic arthritis, the antibacterial effect of Vancomycin-loaded nanospheres was first tested in vitro on Staphylococcus aureus. […] Once the MIC was established, antibacterial activity was tested by a Kirby Bauer Zone of Inhibition assay.

[5] = Critical aggregation concentration by pyrene fluorescence; format: physicochemical; conditions: pyrene fluorescence I1/I3 (379/393 nm), phosphate buffer, sonicated 5 min, incubated 1 h
Description: The critical aggregation concentration (CAC) of silk was determined by the pyrene fluorescence method. Briefly, 20 µL of 24 µg/mL (working concentration) of a pyrene solution was prepared in acetone and acetone was evaporated. Later, 980 µL of silk peptide in the phosphate buffer at different concentrations was then added to the pyrene, and the mixture was sonicated for 5 min and incubated for 1 h. The fluorescence spectra of the samples were recorded at an excitation of 336 nm and emission of 360–450 nm wavelengths. Intensity peaks at 379 nm (I1) and 393 nm (I3) were recorded. The ratio of I1/I3 was plotted against log concentration, and the point where a sharp inclination in the graph was noted as the CAC.

thrombin = conditions: releasing gentamicin linked to a polyvinyl alcohol (PVA) support matrix; cited from earlier work
From the text: Strategies utilizing microenvironments unique to tissues and disease states as a molecular cue to activate drug release has gained widespread attention in the treatment of various diseases like cancer, diabetes, and bacterial infections as it increases drug stability and therapeutic efficacy while decreasing toxic side effects at the same time. Several enzymes including a thrombin-like enzyme in S. aureus, myeloperoxidase in Candida, and esterases in uropathogens were reported to be elevated during infection, whereas virulence factors for certain bacteria like b ...

C[C@H](NC(=O)[C@@H]1CCCN1C(=O)[C@H](Cc1ccccc1)NC(=O)CNC(=O)[C@H](CCCNC(=N)N)NC(=O)[C@@H]1CCCN1C(=O)[C@H](CC(=O)O)NC(=O)[C@H](Cc1ccccc1)NC(=O)CNC(=O)[C@H](CCCCN)NC(=O)[C@H](CC(=O)O)NC(=O)[C@H](CC(=O)O)NC(=O)[C@H](CC(=O)O)NC(=O)[C@H](CC(=O)O)NC(=O)[C@H](Cc1c[nH]cn1)NC(=O)[C@H](Cc1c[nH]cn1)NC(=O)[C@H](Cc1c[nH]cn1)NC(=O)[C@H](Cc1c[nH]cn1)NC(=O)[C@H](Cc1c[nH]cn1)NC(=O)[C@@H](N)Cc1c[nH]cn1)C(=O)NCC(=O)NCC(=O)O [TSP] (H-HHHHHHDDDDKGFDPRGFPAGG-OH)
cleavage on incubation with S. aureus exudate ([1]; S. aureus exudate, HPLC): cleaved
time to cleavage of the peptide in S. aureus bacterial media ([1]; media from actively growing S. aureus culture, enzymatic activity 23 a.u., 37 °C with shaking, HPLC 215 nm every 12 h through 48 h): ≤ 12 h
stability in water after 24 h ([2]; 24 h exposure, n = 3): intact
stability in water ([2]; data not shown): still intact
degradation in human thrombin after 48 h (human thrombin): minimal degradation
stability to human thrombin (human thrombin): still intact
stability to human thrombin after 24 h (human thrombin): intact
cleavage on exposure to human serum [3]: no cleavage

CN[C@H](CC(C)C)C(=O)N[C@H]1C(=O)N[C@@H](CC(N)=O)C(=O)N[C@H]2C(=O)N[C@H]3C(=O)N[C@H](C(=O)N[C@H](C(=O)O)c4cc(O)cc(O)c4-c4cc3ccc4O)[C@H](O)c3ccc(c(Cl)c3)Oc3cc2cc(c3O[C@@H]2O[C@H](CO)[C@@H](O)[C@H](O)[C@H]2O[C@H]2C[C@](C)(N)[C@H](O)[C@H](C)O2)Oc2ccc(cc2Cl)[C@H]1O [vancomycin-free drug, vancomycin]
histopathological findings in infected joint [4]: similar, if not more inflamed, appearance
standard ZOI value (S. aureus): > 12 mm

(GGYGPGQQGPGGYGPGQQGPSGPGSAAAAAAAA)2 [silk, recombinant MaSp2 spider silk protein, two consensus repeats, six histidine tag and enterokinase site, expressed in E. coli]
degradation of silk protein in S. aureus bacterial media ([1]; listed as silk peptide): stability of the peptide even after 48 h
degradation of silk protein in S. aureus bacterial media ([1]; listed as silk protein): no significant difference in the degradation
critical aggregation concentration (CAC) [5]: 1.2 mg/mL

GFDPRGFPAGG
time to complete cleavage (thrombin): ≤ 15 min
